From US12018023B2 (NERVIANO MEDICAL SCIENCES S.R.L., priority 2018, dated 2024)
Read-outs that look alike come from different tables or passages of the source.

Legend:
[1] = molecular target: T1, IDH1^R132C (Homo sapiens, UniProt O75874, R132C); test: NADPH depletion assay, IDH1 R132C; type: biochemical
T1 construct: purchased not specified
Outline: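 IDH1 R132C (2 nM) preincubated 15 min at RT with compound in Tris-HCl pH 7.6/MgCl2 buffer, then 60 min RT with NADPH and 0.14 mM alpha-ketoglutarate. Remaining NADPH read by diaphorase/resazurin fluorescence (Ex544/Em590).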

[2] = tested on: U87MG_IDH1R132H; test: Cellular 2-HG production assay, U87-MG-IDH1 R132H; type: cell-based; conditions: inhibition of 2HG production, 72 hr incubation, LC-MS/MS
Protocol: (§1) Cell lines HT-1080 (commercially available) and U87-MG-IDH1^R132H (obtained in analoy to the procedure reported in J. Mol. Neurosci 2013, 50, 165-71) are maintained in E-MEM 10% FCS and incubated at 37° C. in a humidified 5% CO2 atmosphere. Stably transfected U87-MG cell lines are also supplemented with 500 μg/mL G418.
(§2) Cells are seeded into 96 well black flat bottom plates at a density of 500 cells/well in 100 μL complete medium. After 24 hr the medium is replaced with 200 uL of fresh medium and compounds (dissolved into DMSO) are administrated to the cells using D300E Digital Dispenser (Tecan).
(§3) After 72 hr of incubation 100 uL from each well are collected and used for 2HG (R(−)-2-hydroxyglutarate) quantification.
(§4) Levels of 2-HG in cell culture media are determined by LC-MS/MS. Cell supernatants (100 μL/well) are treated with 1 M aqueous trichloroacetic acid containing 130 μM of the internal standard 2-HG-d3 (20 μL/well) in a 96-well plate.
(§5) The plates are sealed, mildly vortexed for 60 minutes, centrifuged at 4,000 RPM for 15 minutes, placed in a refrigerated autosampler taking care not to shake them, and aliquots of the upper part of the samples are directly injected in the chromatographic system. Calibration standards are obtained by ten fold dilution of aqueous 2-HG stock solutions with blank cell culture medium and denatured exactly in the same way as described above for samples. Samples and standards are assayed for 2-HG by reversed phase chromatography on a C18 column eluted with aqueous 0.15% formic acid and briefly washed with 90% methanol at the end of the run. 2-HG is determined by negative ion electrospray ionization with the internal standard method on a triple quadrupole mass spectrometer monitoring the MRM transitions 147>129 (2-HG) and 150>132 (2-HG-d3). 2-HG inhibition was calculated by comparing treated versus control data using Assay Explore (Symyx) software, with IC50 determined using a sigmoidal fitting algorithm.

[3] = molecular target: T2, IDH1^R132H homodimer enzyme (Homo sapiens, UniProt O75874, R132H); test: NADPH depletion assay, IDH1 R132H; type: biochemical
T2 construct: purchased not specified
Outline: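 IDH1 R132H enzyme (8 nM as diluted) in Tris-HCl pH 7.6 with 10 mM MgCl2, 0.001% Triton X-100 and 4 mM β-mercaptoethanol is preincubated 15 min at RT with compound. Substrate mix (12 uM NADPH, 3.4 mM α-ketoglutarate) is added for 60 min; remaining NAD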

[4] = molecular target: T3, IDH2^R172K (Homo sapiens, UniProt P48735, R172K); test: NADPH depletion assay, IDH2 R172K; type: biochemical
T3 construct: purchased not specified
T3 sequence (P48735 40-452 R172K): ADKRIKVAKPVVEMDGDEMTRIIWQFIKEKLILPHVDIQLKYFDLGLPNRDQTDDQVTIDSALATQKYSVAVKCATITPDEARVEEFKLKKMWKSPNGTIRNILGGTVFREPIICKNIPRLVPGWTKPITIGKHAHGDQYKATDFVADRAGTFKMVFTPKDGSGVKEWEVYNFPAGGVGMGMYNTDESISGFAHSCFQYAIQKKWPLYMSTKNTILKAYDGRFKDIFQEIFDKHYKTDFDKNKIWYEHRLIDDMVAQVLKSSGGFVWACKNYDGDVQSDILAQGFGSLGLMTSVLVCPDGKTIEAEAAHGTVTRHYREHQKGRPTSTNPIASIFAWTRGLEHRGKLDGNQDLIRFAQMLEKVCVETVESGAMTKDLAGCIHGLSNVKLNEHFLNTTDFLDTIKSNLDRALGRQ
Outline: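 IDH2 R172K (16 nM) was preincubated 15 min at RT with compound (1:3 series from 1 mM in DMSO) in Tris pH 7.6/NaCl/MgCl2/Triton/β-mercaptoethanol. The reaction ran 60 min at RT with 0.55 mM alpha-ketoglutarate and NADPH (12 μM in the substrate mix). Remaining NADPH was read with diaphorase/resazurin fluorescence at Ex544/Em590.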

[5] = tested on: HT-1080 (IDH1^R132C); test: Cellular 2-HG production assay, HT-1080; type: cell-based; conditions: Homo sapiens, HT-1080, 72 h, read-out: HT1080 2-HG IC50
Protocol: as §1, §2, §3, §4, §5

[6] = inhibition of 2HG production, 72 hr incubation, LC-MS/MS

T2 sequence (O75874 whole entry R132H): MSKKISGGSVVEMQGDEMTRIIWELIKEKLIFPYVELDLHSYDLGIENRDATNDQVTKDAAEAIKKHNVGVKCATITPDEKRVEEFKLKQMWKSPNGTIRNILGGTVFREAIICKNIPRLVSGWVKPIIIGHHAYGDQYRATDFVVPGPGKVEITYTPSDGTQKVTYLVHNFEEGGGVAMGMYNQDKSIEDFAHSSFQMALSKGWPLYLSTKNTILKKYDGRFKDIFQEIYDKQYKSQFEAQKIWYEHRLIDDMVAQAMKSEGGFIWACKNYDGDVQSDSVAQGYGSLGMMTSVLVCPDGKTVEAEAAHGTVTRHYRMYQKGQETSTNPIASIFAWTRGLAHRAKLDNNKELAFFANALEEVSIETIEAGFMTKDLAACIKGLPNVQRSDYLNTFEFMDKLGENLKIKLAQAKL
T1 sequence (O75874 whole entry R132C): as the sequence (O75874 whole entry R132H) above, with H132C counted along it

SMILES | IC50 [1] [nM] | IC50 [2] [nM] | IC50 [3] [nM] | IC50 [4] [nM] | IC50 [5, 6] [nM] | IC50 [5] [nM]
C=CC(=O)N1CCN(C(=O)c2ccc([C@H](C)Nc3ncc4ccc(=O)n(CC(C)(C)C)c4n3)cc2F)CC1 [cpd 142, 2-{[(1S)-1-{4-[(4-acryloylpiperazin-1-yl)carbonyl]-3-fluorophenyl}ethyl]amino}-8-(2,2-dimethylpropyl)pyrido [2,3-d]pyrimidin-7(8H)-one] | 214 |  | 176 | 552 |  | 75
C[C@@H]1CN(Cc2ccc([C@H](C)Nc3ncc4ccc(=O)n(CC(C)(C)C)c4n3)c(F)c2)C[C@H](C)O1 [cpd 151, 2-{[(1S)-1-(4-{[(2R,6S)-2,6-dimethylmorpholin-4-yl]methyl}-2-fluorophenyl)ethyl]amino}-8-(2,2-dimethylpropyl)pyrido[2,3-d]pyrimidin-7(8H)-one] | 20 | 321 | 95 |  |  | 
C[C@H](Nc1ncc2ccc(=O)n(Cc3c(F)cccc3F)c2n1)c1ccc(C(=O)N2CCC(F)(F)CC2)cc1 [cpd 77, 8-(2,6-difluorobenzyl)-2-{[(1S)-1-{4-[(4,4-difluoropiperidin-1-yl)carbonyl]phenyl}ethyl]amino} pyrido[2,3-d]pyrimidin-7(8H)-one] | 209 | 3030 | 207 |  |  | 
C[C@H](Nc1ncc2ccc(=O)n(CC(C)(C)C)c2n1)c1ccc2ccccc2c1 [cpd 36, 8-(2,2-dimethylpropyl)-2-{[(1S)-1-(naphthalen-2-yl)ethyl]amino}pyrido[2,3-d]pyrimidin-7(8H)-one] |  | 4040 | 178 | 6540 |  | 
Cc1ccccc1Cn1c(=O)ccc2cnc(N[C@@H](C)c3ccc(CN4CCC(F)(F)CC4)cc3)nc21 [cpd 112, 2-{[(1S)-1-{4-[(4,4-difluoropiperidin-1-yl)methyl]phenyl}ethyl]amino}-8-(2-methylbenzyl)pyrido[2,3-d]pyrimidin-7(8H)-one] | 178 | 1610 | 190 |  |  | 
C[C@H](Nc1ncc2ccc(=O)n([C@@H](C)C(C)(C)C)c2n1)c1ccc(CN2CCCC(F)(F)C2)cc1 [cpd 69, 2-{[(1S)-1-{4-[(3,3-difluoropiperidin-1-yl)methyl]phenyl}ethyl]amino}-8-[(2S)-3,3-dimethylbutan-2-yl]pyrido [2,3-d]pyrimidin-7(8H)-one] | 22 | 78 | 36 |  |  | 
CC(C)[C@H](C)n1c(=O)ccc2cnc(N[C@@H](C)c3ccc(CN4C[C@@H](C)O[C@@H](C)C4)c(F)c3)nc21 [cpd 150, 2-{[(1S)-1-(4-{[(2R,6S)-2,6-dimethylmorpholin-4-yl]methyl}-3-fluorophenyl)ethyl]amino}-8-[(2S)-3-methylbutan-2-yl]pyrido[2,3-d]pyrimidin-7(8H)-one] | 8 | 127 | 20 |  |  | 
C=CC(=O)N1CCN([C@@H](CC)c2ccc([C@H](C)Nc3cc4c(ccc(=O)n4CC)cn3)cc2)CC1 | 4 |  | 4 | 25 | 0.9 | 

Second part, led by results:

IC50 [1] [nM] | IC50 [2] [nM] | IC50 [3] [nM] | IC50 [4] [nM] | IC50 [5, 6] [nM] | SMILES | IC50 [5] [nM]
61 | 874 | 152 | 6110 |  | C[C@H](Nc1ncc2ccc(=O)n(CC(C)(C)C)c2n1)c1ccc(-c2ccccc2C#N)cc1 [cpd 134, 4′-[(1S)-1-{[8-(2,2-dimethylpropyl)-7-oxo-7,8-dihydropyrido[2,3-d]pyrimidin-2-yl]amino}ethyl]biphenyl-2-carbonitrile] | 
93 | 4840 | 180 | 5030 |  | C[C@H](Nc1ncc2ccc(=O)n(CC(C)(C)C)c2n1)c1ccc(-c2cnn(C)c2)cc1 [cpd 130, 8-(2,2-dimethylpropyl)-2-({(1S)-1-[4-(1-methyl-1H-pyrazol-4-yl)phenyl]ethyl}amino)pyrido[2,3-d]pyrimidin-7 (8H)-one] | 
54 | 2910 | 122 |  |  | C[C@H](Nc1ncc2ccc(=O)n(CC(C)(C)CO)c2n1)c1ccc(-c2ccsc2)cc1 [cpd 136, 8-(3-hydroxy-2,2-dimethylpropyl)-2-({(1S)-1-[4-(thiophen-3-yl)phenyl]ethyl}amino)pyrido[2,3-d]pyrimidin-7 (8H)-one] | 
132 | 1380 | 201 | 3630 |  | C[C@H](Nc1ncc2ccc(=O)n(Cc3c(F)cccc3F)c2n1)c1ccc(CN2CCC(F)(F)CC2)cc1 [cpd 99, 8-(2,6-difluorobenzyl)-2-{[(1S)-1-{4-[(4,4-difluoropiperidin-1-yl)methyl]phenyl}ethyl]amino}pyrido[2,3-d]pyrimidin-7(8H)-one] | 
134 | 1320 | 146 |  |  | CC(Nc1ncc2ccc(=O)n(CC(C)(C)C)c2n1)c1ccc(C(=O)NC2CCC(F)(F)CC2)c(Cl)c1 (stereo not drawn) [cpd 82, 2-chloro-N-(4,4-difluorocyclohexyl)-4-(1-{[8-(2,2-dimethylpropyl)-7-oxo-pyrido[2,3-d]pyrimidin-2-yl]amino}ethyl) benzamide] | 
38 | 2530 | 68 | 2510 |  | C[C@H](Nc1ncc2ccc(=O)n(CC(C)(C)C)c2n1)c1cc2cc(Cl)ccc2[nH]c1=O [cpd 50, 2-{[(1S)-1-(6-chloro-2-oxo-quinolin-3-yl)ethyl]amino}-8-(2,2-dimethylpropyl)pyrido[2,3-d]pyrimidin-7(8H)-one] | 
196 | 2060 | 347 | 4260 |  | C[C@H](Nc1ncc2ccc(=O)n(CC(C)(C)C)c2n1)c1ccc(C(=O)N2CCC(F)(F)CC2)cc1 [cpd 83, 2-{[(1S)-1-{4-[(4,4-difluoropiperidin-1-yl)carbonyl]phenyl}ethyl]amino}-8-(2,2-dimethylpropyl) pyrido[2,3-d]pyrimidin-7(8H)-one] | 
67 | 2640 | 137 | 7510 |  | C[C@H](Nc1ncc2ccc(=O)n(CC(C)(C)CO)c2n1)c1ccc2ccccc2c1 [cpd 38, 8-(3-hydroxy-2,2-dimethylpropyl)-2-{[(1S)-1-(naphthalen-2-yl)ethyl]amino}pyrido[2,3-d]pyrimidin-7(8H)-one] | 
431 | 1190 | 407 |  |  | C[C@H](Nc1ncc2ccc(=O)n(Cc3c(F)cccc3F)c2n1)c1ccc(C(=O)NC2CCC(F)(F)CC2)cc1 [cpd 75, 4-[(1S)-1-{[8-(2,6-difluorobenzyl)-7-oxo-pyrido[2,3-d]pyrimidin-2-yl]amino}ethyl]-N-(4,4-difluorocyclohexyl)benzamide] | 
2 |  | 2 | 20 | 0.9 | C=CC(=O)N1CCN([C@@H](CC)c2ccc([C@H](C)Nc3cc4c(ccc(=O)n4C(C)C)cn3)cc2)CC1 [cpd 239, 7-{[(1S)-1-{4-[(1S)-1-(4-acryloylpiperazin-1-yl)propyl]phenyl}ethyl]amino}-1-(propan-2-yl)-1,6-naphthyridin-2(1H)-one] | 
